Measured values published in patent US11591353B2 (Mindset Pharma Inc., priority 2020, dated 2023).
pEC50, pIC50: −log10 of the molar value. Where two headings read alike, the source gives them in different places.

What was measured:
[1] = Liver microsomes stability, mouse; conditions: for Remaining Percentage (%) after 60 min Mouse: 2 μM, 0.5 mg/mL microsomes
Method: (§1) The objective of this study was to estimate in vitro metabolic stability of I-12 in pooled human, male rat and male mouse liver microsomes. The concentrations of parent compounds in reaction systems were evaluated by LC-MS/MS for estimating the stability in pooled human, male rat and male mouse liver microsomes. The in vitro intrinsic clearances of test compounds were determined as well.
(§2) A master solution in the “Incubation Plate” containing phosphate buffer, ultra-pure H2O, MgCl2 solution and liver microsomes was made according to Table-3. The mixture was pre-warmed at 37° C. water bath for 5 minutes.
(§3) 40 μL of 10 mM NADPH solution was added to each well. The final concentration of NADPH was 1 mM. The negative control samples were prepared by replacing NADPH with 40 μL of ultra-pure H2O. Samples were prepared in duplicate. Negative controls were prepared in singlet.
(§4) The reaction was started with the addition of 4 μL of 200 μM exemplary test compounds of the application or control compounds to each master solution to get the final concentration of 2 μM. This study was performed in duplicate.
(§5) Aliquots of 50 μL were taken from the reaction solution at 0, 15, 30, 45 and 60 minutes. The reaction solutions were stopped by the addition of 4 volumes of cold methanol with IS (100 nM alprazolam, 200 nM imipramine, 200 nM labetalol and 2 μM ketoprofen). Samples were centrifuged at 3,220 g for 40 minutes. Aliquot of 90 μL of the supernatant was mixed with 90 μL of ultra-pure H2O and then was used for LC-MS/MS analysis.
(§6) LC/MS analysis was performed for all samples from this study using a Shimadzu liquid chromatograph separation system equipped with degasser DGU-20A5R; solvent delivery unit LC-30AD; system controller SIL-30AC; column oven CTO-30A; CTC Analytics HTC PAL System. Mass spectrometric analysis was performed using an Triple Quad™ 5500 instrument.
(§7) All calculations were carried out using Microsoft Excel. Peak area ratios of test compound to internal standard (listed in the below table) were determined from extracted ion chromatograms.
(§8) All calculations were carried out using Microsoft Excel. Peak areas were determined from extracted ion chromatograms. The slope value, k, was determined by linear regression of the natural logarithm of the remaining percentage of the parent drug vs. incubation time curve.
(§9) Conversion of the in vitro t1/2 (min) into the in vitro intrinsic clearance (in vitro CLint, in μL/min/mg proteins) was done using the following equation (mean of duplicate determinations): […]

[2] = Liver microsomes stability, human; conditions: for Remaining Percentage (%) after 60 min Human: 2 μM, 0.5 mg/mL microsomes
Method: as §1, §2, §3, §4, §5, §6, §7, §8, §9

[3] = Liver microsomes stability, rat; conditions: for Remaining Percentage (%) after 60 min Rat: 2 μM, 0.5 mg/mL microsomes
Method: as §1, §2, §3, §4, §5, §6, §7, §8, §9

human 5-HT2A receptor = human 5-HT2A receptor (Homo sapiens (Human), UniProt P28223); experiment: Radioligand binding assay on human 5-HT2A receptor ([3H]-ketanserin)
Method: i. Prepare the assay buffer following the table below;
ii. Preparation of 8 doses of reference and test compounds starting from 10 mM stock solution as requested by 5-fold serial dilutions with 100%;
iii. […] a. Add 50 μl/well of 0.5% (v/v) PEI to UniFilter-96 GF/B plates. Seal the plates and incubate at 4° C. for 3 hrs; b. After incubation, wash the plates 3 times with ice-cold wash buffer (50 mM Tris, pH7.4);
iv. Preparation of assay plates: a. Dilute cell membrane with assay buffer and add 330 μl/well to 96 round deep well plates to reach a concentration of 20 μg/well; b. […] Dilute [3H]-ketanserin with assay buffer to 5 nM (5× final concentration) and add 110 μl/well to 96 round deep well plates.
v. Centrifuge the plate at 1000 rpm for 30 secs and then agitate at 600 rpm, R.T. for 5 min.
vii. Stop the incubation by vacuum filtration onto GF/B filter plates followed by 4 times washing with ice-cold wash buffer (50 mM Tris, pH7.4).
ix. […]
For reference and exemplary test compounds of the application, the results are expressed as % Inhibition, using the normalization equation: N=100−100×(U−C2)/(C1−C2), where U is the unknown value, C1 is the average of high controls, and C2 is the average of low controls. The IC50 is determined by fitting percentage of inhibition as a function of compound concentrations with Hill equation using XLfit.

[4] = biological target: human 5-HT2A (h5-HT2A) receptor (Homo sapiens (Human), UniProt P28223); experiment: FLIPR assay, human 5-HT2A receptor under agonist mode; format: cell-based; conditions: agonist mode, FLIPR calcium assay; read-out: h5-HT2A EC50
Method: • I. Assessment of the activated effect of exemplary compounds of Formula I targeting on human 5-HT2A (h5-HT2A) receptor under agonist mode: Compound Preparation and Assay Controls I.a. Reagent and Materials:
1. Culture the cells in cell culture medium (DMEM containing 10% FBS 1× penicillin-streptomycin 300 μg/ml G418 and 100 μg/ml hygromycin B) at 37° C., 5% (v/v) CO2.
2. One day before the assays, detach the cell using TrypLE™ Express and count cells using cell counter.
3. Seed 20000 cells/well in 30 μl/well culture medium to a 384-well cell plate and incubate the cells overnight at 37° C., 5% (v/v) CO2.
4. On the assay day, prepare 2× dye solution following the manual of the FLIPR® Calcium 6 Assay Kit: i. Dilute the dye with assay buffer (20 mM HEPES in 1×HBSS, PH7.4); ii. Add probenecid to the final concentration of 5 mM; iii. Vortex vigorously for 1-2 minutes.
5. Medium from cell plate by flicking the cell plate on towel papers.
6. Add 10 μl of assay buffer and 10 μl of 2× dye solution to each well of the cell plate.
7. Put the cell plate on plate shaker, agitate the plate at 600 rpm for 2 minutes. Incubate the plate at 37° C. for 2 hours followed by additional 15-minute incubation at 25° C.
8. Prepare 3× compound in assay buffer: a. Dilute reference compounds to required concentration with DMSO. Add the compounds to a 384-well compound plate; b. Perform serial dilutions; c. Add 10 mM test compounds to the compound plate, perform 3-fold serial dilutions. d. […] Add 20 μl/well assay buffer to the compound plate; f. Mix the plate on plate shaker for 2 mins;
i. The normalized fluorescence reading (RFU) is calculated as shown follow, while Fmax and Fmin stand for maximum and minimum of calcium signal during defined time window: RFU=Fmax−Fmin
ii. Calculate the percentage activation by using following equation: […]
iii. Calculate EC50 by fitting % activation against log of compound concentrations with Hill equation using XLfit.

[5] = tobacco use disorder, cited from earlier work

Row | Compound | CLint (μL/min/mg protein) Mouse ([1]; with NADPH) [μL/min/mg protein] | t1/2 (min) Mouse ([1]; with NADPH) [min] | Remaining Percentage (%) after 60 min Mouse ([1]; with NADPH) [%] | CLint (μL/min/mg protein) Human ([2]; with NADPH) [μL/min/mg protein] | t1/2 (min) Human ([2]; with NADPH) [min] | Remaining Percentage (%) after 60 min Human ([2]; with NADPH) [%] | CLint (μL/min/mg protein) Rat ([3]; with NADPH) [μL/min/mg protein] | t1/2 (min) Rat ([3]; with NADPH) [min] | Remaining Percentage (%) after 60 min Rat ([3]; with NADPH) [%] | half-life at 2 μM ([1]; male, mouse, microsomes) [h] | microsomal CLint at 2 μM ([1]; male, mouse, microsomes) [µL/min/mg] | half-life at 2 μM ([2]; human, microsomes) [h] | microsomal CLint at 2 μM ([2]; human, microsomes) [µL/min/mg] | metabolic stability in liver microsomes (in words) ([2]; human, rat and mouse liver microsomes, 60 minute) | half-life at 2 μM ([3]; male, rat, microsomes) [h] | microsomal CLint at 2 μM ([3]; male, rat, microsomes) [µL/min/mg] | pIC50 (human 5-HT2A receptor) | pEC50 [4] | abstinence rate ([5]; 12 months follow-up) [%] | abstinence rate ([5]; six months follow-up) [%]
1 | CN(C)CCc1c[nH]c2cccc(O)c12 [Psilocin, 4-hydroxy-N,N-dimethyltryptamine, reference compound] | 9.78 | 141.71 | 96.89 | 11.81 | 117.32 | 70.16 | 15.57 | 89.01 | 62.68 | – | – | – | – | – | – | – | – | – | – | –
2 | [2H]C([2H])([2H])N(C([2H])([2H])[2H])C([2H])([2H])C([2H])([2H])c1c[nH]c2cccc(OCc3ccccc3)c12 [Compound I-46, 2-(4-(benzyloxy)-1H-indol-3-yl)-N,N-bis(methyl-d3)ethan-1-amine-1,1,2,2-d4] | – | – | 44.75 | – | – | 58.94 | – | – | 108.23 | 0.862 | 26.8 | 1.31 | 17.6 | rapidly metabolized | 0.593 | 39 | 6.97 | 7.14 | – | –
3 | CN(C)CCc1c[nH]c2cccc(OP(=O)(O)O)c12 [psilocybin, 4-phosphoryloxy-N,N-dimethyltrypatmine] | – | – | – | – | – | – | – | – | – | – | – | – | – | – | – | – | – | – | 67 | 80
